In patent publication US20050070496A1, “Semi-solid formulations for the oral administration of taxoids” (Aventis Pharma S. A., priority 2003, published 2005):
Marks after values point to notes of the source that are not given here.

Columns and labels:
[1] = Solubility of taxoid of formula Ib in liquid excipients; assay type: physicochemical
Description: After a first selection of proper excipients (in terms of safety and developability), the solubility of taxoids in the excipient was the first screening step for the choice of the excipient and the selection of the prototypes. Then, the prototypes (liquid or semi-solid) were manufactured, and characterized in terms of in vitro behavior in simulated GI media and chemical stability. Finally, the physical properties and stability of the semi-solid prototypes have been investigated.

[2] = Solubility in semi-solid excipients (at the melted state) and solid excipients
Description: The solubility of taxoid of formula Ib at room temperature has been determined by X ray diffraction.

With `CC(=O)O[C@H]1C(=O)[C@]23C[C@H]2C[C@H]2OC[C@@]2(OC(C)=O)[C@H]3[C@H](OC(=O)c2ccccc2)[C@]2(O)C[C@H](OC(=O)[C@H](O)[C@@H](NC(=O)OC(C)(C)C)c3ccccc3)C(C)=C1C2(C)C` [taxoid of formula Ib] the Solubility ([1]; in Capryol 90 (Polyethylene glycol monocaprylate)) was 281 mg/g, the Solubility ([1]; in Cremophor EL (POE hydrogenated castor oil)) was 94 mg/g and the Solubility ([1]; in Crossential O94 (Oleic acid)) was 37 mg/g. It also gave a Solubility ([1]; in Edenor C8 98-100 (Caprylic acid)) of 138 mg/g, a Solubility ([1]; in Ethanol) of 250 mg/g and a Solubility ([1]; in HPβ cyclodextrin) of 0.28 mg/g. For the same compound, the Solubility ([1]; in Labrafil M1944 CS (oleyl macrogol-6-glycerides)) was 52 mg/g, the Solubility ([1]; in Labrasol (Caprylocaproyl macrogol-8 glycerides)) was 244 mg/g and the Solubility ([1]; in Lauroglycol 129 (PG monolaurate)) was 129 mg/g. It also gave a Solubility ([1]; in Maisine 35-1 (Glyceryl linoleate)) of 129 mg/g, a Solubility ([1]; in Miglyol 812N (caprylic/capric triglyceride)) of 65 mg/g and a Solubility ([1]; in PEG 400 (polyethylene glycol 400)) of 121 mg/g. It also gave a Solubility ([1]; in PS 80 VG (POE monooleate)) of 144 mg/g, a Solubility ([1]; in PS 80 VG pH 6 (POE monooleate)) of 135 mg/g and a Solubility ([1]; in Peceol (Glyceryl monooleate)) of 106 mg/g. For the same compound, the Solubility ([1]; in Phosal 50 PG (Phosphatidylcholine ≧ 50% in propylene glycol)) was 27 mg/g, the Solubility ([1]; in Phosal 50 SA (Phosphatidylcholine 50 ± 3% in alcohol, safflower oil, glyceryl stearate, coconut oil and ascorbyl palmitate)) was 97 mg/g and the Solubility ([1]; in Phosal 75 SA (Phosphatidylcholine 75 ± 3% in alcohol, safflower oil, glyceryl stearate, coconut oil and ascorbyl palmitate)) was 122 mg/g. For the same compound, the Solubility ([1]; in Plurol diisostearic) was 23 mg/g, the Solubility ([1]; in Plurol oleic CC497 (Polyglyceryl 6 oleate)) was 42 mg/g and the Solubility ([1]; in Soybean oil (glycerides, linoleic acid 50-57%)) was 16 mg/g. The Solubility ([1]; in Transcutol (Diethylene glycol monoethyl ether)) was 197 mg/g, the Solubility ([2]; in Gelucire 44/14 (lauroyl macrogol-32 glycerides), excipient melted up to 70° C.) was 96 mg/g and the Solubility ([2]; in Imwitor 988 (Glyceryl mono-dicaprylate), semi-solid excipient melted up to 70° C.) was 283 mg/g. The Solubility ([2]; in Myrj 45 (POE stearate), excipient melted up to 70° C.) was 128 mg/g, the Solubility ([2]; in PEG 4000 (polyethylene glycol 1500), excipient melted up to 70° C.) was >50* mg/g and the Solubility ([2]; in Vitamin E TPGS (α-tocopherol PEG succinate), excipient melted up to 70° C.) was 73 mg/g.
